Laboratory results: US7772264B2, “Salt and polymorphs of a DPPIV inhibitor” (Hoffmann-La Roche Inc., priority 2005, dated 2010)
Counter-ions that a name gives are not always drawn.

Experiments:
human DPP-IV = target: T1, human DPP-IV (Homo sapiens, UniProt P27487); assay: DPP-IV activity assay (fluorogenic / colorimetric); format: biochemical; conditions: natural human DPP-IV from plasma pool or recombinant human DPP-IV; 37° C., pH 7.8
T1 construct: made in house; host or cells: Pichia pastoris (secreted, purified from the culture medium)
Procedure: Activity of DPP-IV inhibitors are tested with natural human DPP-IV derived from a human plasma pool or with recombinant human DPP-IV. Human citrate plasma from different donors is pooled, filtered through a 0.2 micron membrane under sterile conditions and aliquots of 1 mL are shock frozen and stored at −120° C. until used. In the colorimetric DPP-IV assay 5 to 10 μL human plasma and in the fluorometric assay 1.0 μL of human plasma in a total assay volume of 100 μL is used as an enzyme source. The cDNA of the human DPP-IV sequence of amino acid 31- to 766, restricted for the N-terminus and the transmembrane domain, is cloned into pichia pastoris. […]
In the calorimetric assay H-Ala-Pro-pNA.HCl (Bachem L-1115) is used as a substrate. […] Fluorescence is detected in a Perkin Elmer Luminescence Spectrometer LS 50B at an excitation wavelength of 400 nm and an emission wavelength of 505 nm continuously every 15 seconds for 10 to 30 minutes. Initial rate constants are calculated by best fit linear regression. The absorption of pNA liberated from the calorimetric substrate is detected in a Packard SpectraCount at […] continuously every 2 minutes for 30 to 120 minutes. Initial rate constants are calculated by best fit linear regression. […]
IC50 determinations of test compounds are calculated by non-linear best fit regression of the DPP-IV inhibition of at least 5 different compound concentrations. […]

[1] = Hygroscopicity observation (water uptake and release of the crystal form); format: physicochemical; conditions: solid crystal form; XRPD and IR vary with humidity of the sample
From the text: It has been observed that the polymorph B is hygroscopic and that the X-ray powder diffraction pattern and the IR-spectrum of polymorph B can vary, depending on the humidity of the analyzed sample. Water uptake and release, respectively, result in systematic shifts of some peak positions in the X-ray powder diffraction pattern. The crystal form B is characterized by a set of peaks, as described above, that are not susceptible to peak shifts in a range larger than 0.2 degrees in 2-theta. Samples of polymorph B, which have been dried, e.g. by elevated temperature or in a dry atmosphere, show the same X-ray powder diffraction pattern. In the IR spectrum of polymorph B, variations of humidity of the sample are mainly observed in following regions: 3700-3300, 1250-1150, 1045-1000 970-955, 900-850 cm^−1. However, changes of humidity can also have an influence on the position of the peaks outside these ranges.

T1 sequence (P27487 31-766): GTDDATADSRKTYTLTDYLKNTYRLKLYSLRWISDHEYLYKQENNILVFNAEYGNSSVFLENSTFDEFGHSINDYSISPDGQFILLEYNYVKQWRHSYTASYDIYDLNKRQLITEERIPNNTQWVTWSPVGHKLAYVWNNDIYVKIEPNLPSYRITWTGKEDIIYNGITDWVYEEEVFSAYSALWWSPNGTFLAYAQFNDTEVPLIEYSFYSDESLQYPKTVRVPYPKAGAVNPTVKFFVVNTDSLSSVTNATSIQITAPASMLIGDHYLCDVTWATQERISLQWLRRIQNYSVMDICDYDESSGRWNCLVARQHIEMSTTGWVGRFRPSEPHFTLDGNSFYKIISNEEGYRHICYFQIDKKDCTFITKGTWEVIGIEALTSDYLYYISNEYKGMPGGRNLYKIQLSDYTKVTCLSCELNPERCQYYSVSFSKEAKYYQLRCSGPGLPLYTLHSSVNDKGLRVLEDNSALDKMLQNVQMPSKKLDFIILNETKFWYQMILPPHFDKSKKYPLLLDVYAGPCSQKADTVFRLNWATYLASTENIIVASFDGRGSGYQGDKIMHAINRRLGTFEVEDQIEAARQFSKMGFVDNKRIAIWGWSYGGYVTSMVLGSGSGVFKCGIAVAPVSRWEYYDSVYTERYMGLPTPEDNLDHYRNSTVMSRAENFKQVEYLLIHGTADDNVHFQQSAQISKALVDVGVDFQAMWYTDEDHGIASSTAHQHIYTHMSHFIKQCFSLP

| IC50 (human DPP-IV) [nM] | Ki (human DPP-IV) [nM] | hygroscopicity [1] | Structure (SMILES) |
| --- | --- | --- | --- |
| 75 | 80 |  | Cc1oc(-c2ccccc2)nc1CCNCC(=O)N1CCC[C@H]1C#N [(S)-1-{[2-(5-Methyl-2-phenyl-oxazol-4-yl)-ethylamino]-acetyl}-pyrrolidine-2-carbonitrile mesylate] |
|  |  | hygroscopic | CS(=O)(=O)O.Cc1oc(-c2ccccc2)nc1CCNCC(=O)N1CCC[C@H]1C#N [polymorph B, (S)-1-{[2-(5-Methyl-2-phenyl-oxazol-4-yl)-ethylamino]-acetyl}-pyrrolidine-2-carbonitrile mesylate] |
